Source: ChEMBL document CHEMBL5723584 (2023)

What was measured:
[1] = target: Cyclin-dependent kinase-like 4 (Homo sapiens) (UniProt Q5MAI5); assay: activity of CDKL4(h) at 1.0 µM in the Eurofins Kinase panel; details: Compound concentration 1.0 uM
[2] = target: Tyrosine-protein kinase Lck (Homo sapiens) (UniProt P06239); assay: activity of Lck(h) activated at 1.0 µM in the Eurofins Kinase panel; details: Compound concentration 1.0 uM
[3] = target: 5'-AMP-activated protein kinase catalytic subunit alpha-2 (Homo sapiens) (UniProt P54646); assay: activity of AMPKalpha2(h) at 1.0 µM in the Eurofins Kinase panel; details: Compound concentration 1.0 uM
[4] = target: Serine/threonine-protein kinase tousled-like 2 (Homo sapiens) (UniProt Q86UE8); assay: activity of TLK2(h) at 1.0 µM in the Eurofins Kinase panel; details: Compound concentration 1.0 uM
[5] = target: Serine/threonine-protein kinase SIK3 (Homo sapiens) (UniProt Q9Y2K2); assay: activity of SIK3(h) at 1.0 µM in the Eurofins Kinase panel; details: Compound concentration 1.0 uM
[6] = target: Activin receptor type-1-like (Homo sapiens) (UniProt P37023); assay: activity of ALK1(h) at 1.0 µM in the Eurofins Kinase panel; details: Compound concentration 1.0 uM
[7] = target: Serine/threonine-protein kinase pim-1 (Homo sapiens) (UniProt P11309); assay: activity of Pim-1(h) at 1.0 µM in the Eurofins Kinase panel; details: Compound concentration 1.0 uM
[8] = target: Calcium/calmodulin-dependent protein kinase kinase 2 (Homo sapiens) (UniProt Q96RR4); assay: activity of CaMKK2(h) at 1.0 µM in the Eurofins Kinase panel; details: Compound concentration 1.0 uM
[9] = target: Mitogen-activated protein kinase 14 (Homo sapiens) (UniProt Q16539); assay: activity of SAPK2a(h) at 1.0 µM in the Eurofins Kinase panel; details: Compound concentration 1.0 uM
[10] = target: Ribosomal protein S6 kinase alpha-2 (Homo sapiens) (UniProt Q15349); assay: activity of Rsk3(h) at 1.0 µM in the Eurofins Kinase panel; details: Compound concentration 1.0 uM
[11] = target: Serine/threonine-protein kinase WNK3 (Homo sapiens) (UniProt Q9BYP7); assay: activity of WNK3(h) at 1.0 µM in the Eurofins Kinase panel; details: Compound concentration 1.0 uM
[12] = target: ALK tyrosine kinase receptor (Homo sapiens) (UniProt Q9UM73); assay: activity of ALK(h) at 1.0 µM in the Eurofins Kinase panel; details: Compound concentration 1.0 uM
[13] = target: Serine/threonine-protein kinase Nek3 (Homo sapiens) (UniProt P51956); assay: activity of NEK3(h) at 1.0 µM in the Eurofins Kinase panel; details: Compound concentration 1.0 uM
[14] = target: Mitogen-activated protein kinase kinase kinase kinase 2 (Homo sapiens) (UniProt Q12851); assay: activity of GCK(h) at 1.0 µM in the Eurofins Kinase panel; details: Compound concentration 1.0 uM
[15] = target: Serine/threonine-protein kinase Sgk3 (Homo sapiens) (UniProt Q96BR1); assay: activity of SGK3(h) at 1.0 µM in the Eurofins Kinase panel; details: Compound concentration 1.0 uM
[16] = target: Serine/threonine-protein kinase TAO3 (Homo sapiens) (UniProt Q9H2K8); assay: activity of TAO3(h) at 1.0 µM in the Eurofins Kinase panel; details: Compound concentration 1.0 uM
[17] = target: Serine/threonine-protein kinase SBK1 (Homo sapiens) (UniProt Q52WX2); assay: activity of SBK1(h) at 1.0 µM in the Eurofins Kinase panel; details: Compound concentration 1.0 uM
[18] = target: SRSF protein kinase 1 (Homo sapiens) (UniProt Q96SB4); assay: activity of SRPK1(h) at 1.0 µM in the Eurofins Kinase panel; details: Compound concentration 1.0 uM
[19] = target: CDK18/Cyclin Y (Homo sapiens) (UniProt Q07002+Q8ND76); assay: activity of CDK18/cyclinY(h) at 1.0 µM in the Eurofins Kinase panel; format: protein-complex assay; details: Compound concentration 1.0 uM
[20] = target: Serine/threonine-protein kinase WNK4 (Homo sapiens) (UniProt Q96J92); assay: activity of WNK4(h) at 1.0 µM in the Eurofins Kinase panel; details: Compound concentration 1.0 uM
[21] = target: Serine/threonine-protein kinase Nek2 (Homo sapiens) (UniProt P51955); assay: activity of NEK2(h) at 1.0 µM in the Eurofins Kinase panel; details: Compound concentration 1.0 uM
[22] = target: Dual specificity tyrosine-phosphorylation-regulated kinase 1B (Homo sapiens) (UniProt Q9Y463); assay: activity of DYRK1B(h) at 1.0 µM in the Eurofins Kinase panel; details: Compound concentration 1.0 uM
[23] = target: Tyrosine-protein kinase FRK (Homo sapiens) (UniProt P42685); assay: activity of PTK5(h) at 1.0 µM in the Eurofins Kinase panel; details: Compound concentration 1.0 uM
[24] = target: Serine/threonine-protein kinase ULK1 (Homo sapiens) (UniProt O75385); assay: activity of ULK1(h) at 1.0 µM in the Eurofins Kinase panel; details: Compound concentration 1.0 uM
[25] = target: DNA-dependent protein kinase catalytic subunit (Homo sapiens) (UniProt P78527); assay: activity of DNA-PK(h) at 1.0 µM in the Eurofins Kinase panel; details: Compound concentration 1.0 uM
[26] = target: Fibroblast growth factor receptor 3 (Homo sapiens) (UniProt P22607); assay: activity of FGFR3(h) at 1.0 µM in the Eurofins Kinase panel; details: Compound concentration 1.0 uM
[27] = target: Serine/threonine-protein kinase DCLK1 (Homo sapiens) (UniProt O15075); assay: activity of DCAMKL1(h) at 1.0 µM in the Eurofins Kinase panel; details: Compound concentration 1.0 uM
[28] = target: CDK6/cyclin D3 (Homo sapiens) (UniProt P30281+Q00534); assay: activity of CDK6/cyclinD3(h) at 1.0 µM in the Eurofins Kinase panel; format: protein-complex assay; details: Compound concentration 1.0 uM
[29] = target: Cyclin-dependent kinase 14/Cyclin-Y (Homo sapiens) (UniProt O94921+Q8ND76); assay: activity of CDK14/cyclinY(h) at 1.0 µM in the Eurofins Kinase panel; format: protein-complex assay; details: Compound concentration 1.0 uM
[30] = target: Serine/threonine-protein kinase 32A (Homo sapiens) (UniProt Q8WU08); assay: activity of STK32A(h) at 1.0 µM in the Eurofins Kinase panel; details: Compound concentration 1.0 uM
[31] = target: Serine/threonine-protein kinase TAO2 (Homo sapiens) (UniProt Q9UL54); assay: activity of TAO2(h) at 1.0 µM in the Eurofins Kinase panel; details: Compound concentration 1.0 uM
[32] = target: Interferon-induced, double-stranded RNA-activated protein kinase (Homo sapiens) (UniProt P19525); assay: activity of PKR(h) at 1.0 µM in the Eurofins Kinase panel; details: Compound concentration 1.0 uM
[33] = target: Serine-protein kinase ATM (Homo sapiens) (UniProt Q13315); assay: activity of ATM(h) at 1.0 µM in the Eurofins Kinase panel; details: Compound concentration 1.0 uM
Aurora kinase B = Aurora kinase B (Homo sapiens, UniProt Q96GD4); assay: Promega NanoBRET (AURKB)
[34] = target: Serine/threonine-protein kinase 35 (Homo sapiens) (UniProt Q8TDR2); assay: activity of CLIK1(h) at 1.0 µM in the Eurofins Kinase panel; details: Compound concentration 1.0 uM
[35] = target: Casein kinase I isoform epsilon (Homo sapiens) (UniProt P49674); assay: activity of CK1epsilon(h) at 1.0 µM in the Eurofins Kinase panel; details: Compound concentration 1.0 uM
[36] = target: Serine/threonine-protein kinase Nek9 (Homo sapiens) (UniProt Q8TD19); assay: activity of NEK9(h) at 1.0 µM in the Eurofins Kinase panel; details: Compound concentration 1.0 uM
[37] = target: Mitogen-activated protein kinase 12 (Homo sapiens) (UniProt P53778); assay: activity of SAPK3(h) at 1.0 µM in the Eurofins Kinase panel; details: Compound concentration 1.0 uM
[38] = target: TGF-beta receptor type-2 (Homo sapiens) (UniProt P37173); assay: activity of TGFBR2(h) at 1.0 µM in the Eurofins Kinase panel; details: Compound concentration 1.0 uM

Ribosomal protein S6 kinase alpha-2 (Homo sapiens), sequence (Q15349 whole entry): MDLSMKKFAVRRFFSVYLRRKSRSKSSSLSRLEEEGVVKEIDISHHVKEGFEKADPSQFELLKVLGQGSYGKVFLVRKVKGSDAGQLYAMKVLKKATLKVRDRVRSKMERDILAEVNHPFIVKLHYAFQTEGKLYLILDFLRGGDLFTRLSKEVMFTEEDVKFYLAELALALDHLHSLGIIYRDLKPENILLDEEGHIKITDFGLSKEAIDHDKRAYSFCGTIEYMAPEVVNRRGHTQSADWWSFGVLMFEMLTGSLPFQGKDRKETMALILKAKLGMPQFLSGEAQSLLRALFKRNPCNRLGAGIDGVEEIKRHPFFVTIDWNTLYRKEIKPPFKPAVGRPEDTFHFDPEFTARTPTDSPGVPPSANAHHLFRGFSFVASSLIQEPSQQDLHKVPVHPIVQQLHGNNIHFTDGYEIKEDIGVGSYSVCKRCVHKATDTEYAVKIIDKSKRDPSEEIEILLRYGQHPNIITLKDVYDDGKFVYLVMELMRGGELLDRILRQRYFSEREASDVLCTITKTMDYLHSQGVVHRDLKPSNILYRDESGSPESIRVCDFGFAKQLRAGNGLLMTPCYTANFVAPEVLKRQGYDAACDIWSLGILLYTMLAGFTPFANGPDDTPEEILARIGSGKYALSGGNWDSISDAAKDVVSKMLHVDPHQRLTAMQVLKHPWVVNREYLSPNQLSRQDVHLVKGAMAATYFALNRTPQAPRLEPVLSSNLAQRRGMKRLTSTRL
Serine/threonine-protein kinase Nek2 (Homo sapiens), sequence (P51955 whole entry): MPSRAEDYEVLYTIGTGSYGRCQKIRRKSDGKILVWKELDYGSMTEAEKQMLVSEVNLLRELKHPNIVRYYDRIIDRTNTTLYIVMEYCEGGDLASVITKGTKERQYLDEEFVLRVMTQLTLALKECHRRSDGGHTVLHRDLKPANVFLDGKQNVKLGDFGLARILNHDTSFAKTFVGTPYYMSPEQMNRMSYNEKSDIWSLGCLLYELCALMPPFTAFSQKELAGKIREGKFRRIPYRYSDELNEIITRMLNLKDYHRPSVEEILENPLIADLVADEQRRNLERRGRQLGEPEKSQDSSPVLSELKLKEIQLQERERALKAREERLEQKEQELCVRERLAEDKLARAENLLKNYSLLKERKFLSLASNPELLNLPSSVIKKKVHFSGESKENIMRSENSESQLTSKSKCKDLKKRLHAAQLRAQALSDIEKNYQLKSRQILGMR
SRSF protein kinase 1 (Homo sapiens), sequence (Q96SB4 whole entry): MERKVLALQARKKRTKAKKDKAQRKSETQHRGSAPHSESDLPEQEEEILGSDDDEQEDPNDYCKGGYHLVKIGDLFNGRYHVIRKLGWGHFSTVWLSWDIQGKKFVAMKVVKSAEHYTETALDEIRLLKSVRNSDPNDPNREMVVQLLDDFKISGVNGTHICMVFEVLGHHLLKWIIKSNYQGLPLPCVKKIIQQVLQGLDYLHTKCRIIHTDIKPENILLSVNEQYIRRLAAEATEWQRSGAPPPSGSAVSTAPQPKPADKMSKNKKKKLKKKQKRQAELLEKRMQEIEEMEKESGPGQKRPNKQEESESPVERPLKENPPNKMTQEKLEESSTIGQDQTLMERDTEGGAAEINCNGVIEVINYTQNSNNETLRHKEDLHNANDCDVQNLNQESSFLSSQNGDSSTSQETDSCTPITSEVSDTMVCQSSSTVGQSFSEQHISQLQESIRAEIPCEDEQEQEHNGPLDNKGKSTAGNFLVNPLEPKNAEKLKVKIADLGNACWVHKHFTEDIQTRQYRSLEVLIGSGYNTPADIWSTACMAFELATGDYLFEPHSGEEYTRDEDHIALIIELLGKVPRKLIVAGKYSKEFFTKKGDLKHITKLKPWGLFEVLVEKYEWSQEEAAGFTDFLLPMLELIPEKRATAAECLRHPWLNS
Serine/threonine-protein kinase DCLK1 (Homo sapiens), sequence (O15075 whole entry): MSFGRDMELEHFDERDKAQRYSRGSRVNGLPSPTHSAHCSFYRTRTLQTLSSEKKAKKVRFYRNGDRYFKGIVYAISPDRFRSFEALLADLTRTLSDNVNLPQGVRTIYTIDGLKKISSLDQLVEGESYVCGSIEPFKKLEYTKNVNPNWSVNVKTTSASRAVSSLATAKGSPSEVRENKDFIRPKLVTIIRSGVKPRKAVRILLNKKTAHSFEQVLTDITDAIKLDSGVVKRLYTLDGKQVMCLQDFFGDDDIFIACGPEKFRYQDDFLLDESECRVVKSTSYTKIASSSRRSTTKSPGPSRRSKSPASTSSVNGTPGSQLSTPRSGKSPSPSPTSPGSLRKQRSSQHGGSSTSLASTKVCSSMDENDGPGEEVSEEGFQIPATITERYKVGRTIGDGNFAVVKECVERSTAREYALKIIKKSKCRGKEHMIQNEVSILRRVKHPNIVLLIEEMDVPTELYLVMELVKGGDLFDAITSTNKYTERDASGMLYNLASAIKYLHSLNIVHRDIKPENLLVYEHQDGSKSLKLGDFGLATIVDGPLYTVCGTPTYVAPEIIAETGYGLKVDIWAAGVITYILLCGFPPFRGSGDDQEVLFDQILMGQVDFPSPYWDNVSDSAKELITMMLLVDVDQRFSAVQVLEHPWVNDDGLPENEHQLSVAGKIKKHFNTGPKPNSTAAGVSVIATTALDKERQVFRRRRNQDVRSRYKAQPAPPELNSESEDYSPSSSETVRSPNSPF
Serine/threonine-protein kinase TAO2 (Homo sapiens), sequence (Q9UL54 whole entry): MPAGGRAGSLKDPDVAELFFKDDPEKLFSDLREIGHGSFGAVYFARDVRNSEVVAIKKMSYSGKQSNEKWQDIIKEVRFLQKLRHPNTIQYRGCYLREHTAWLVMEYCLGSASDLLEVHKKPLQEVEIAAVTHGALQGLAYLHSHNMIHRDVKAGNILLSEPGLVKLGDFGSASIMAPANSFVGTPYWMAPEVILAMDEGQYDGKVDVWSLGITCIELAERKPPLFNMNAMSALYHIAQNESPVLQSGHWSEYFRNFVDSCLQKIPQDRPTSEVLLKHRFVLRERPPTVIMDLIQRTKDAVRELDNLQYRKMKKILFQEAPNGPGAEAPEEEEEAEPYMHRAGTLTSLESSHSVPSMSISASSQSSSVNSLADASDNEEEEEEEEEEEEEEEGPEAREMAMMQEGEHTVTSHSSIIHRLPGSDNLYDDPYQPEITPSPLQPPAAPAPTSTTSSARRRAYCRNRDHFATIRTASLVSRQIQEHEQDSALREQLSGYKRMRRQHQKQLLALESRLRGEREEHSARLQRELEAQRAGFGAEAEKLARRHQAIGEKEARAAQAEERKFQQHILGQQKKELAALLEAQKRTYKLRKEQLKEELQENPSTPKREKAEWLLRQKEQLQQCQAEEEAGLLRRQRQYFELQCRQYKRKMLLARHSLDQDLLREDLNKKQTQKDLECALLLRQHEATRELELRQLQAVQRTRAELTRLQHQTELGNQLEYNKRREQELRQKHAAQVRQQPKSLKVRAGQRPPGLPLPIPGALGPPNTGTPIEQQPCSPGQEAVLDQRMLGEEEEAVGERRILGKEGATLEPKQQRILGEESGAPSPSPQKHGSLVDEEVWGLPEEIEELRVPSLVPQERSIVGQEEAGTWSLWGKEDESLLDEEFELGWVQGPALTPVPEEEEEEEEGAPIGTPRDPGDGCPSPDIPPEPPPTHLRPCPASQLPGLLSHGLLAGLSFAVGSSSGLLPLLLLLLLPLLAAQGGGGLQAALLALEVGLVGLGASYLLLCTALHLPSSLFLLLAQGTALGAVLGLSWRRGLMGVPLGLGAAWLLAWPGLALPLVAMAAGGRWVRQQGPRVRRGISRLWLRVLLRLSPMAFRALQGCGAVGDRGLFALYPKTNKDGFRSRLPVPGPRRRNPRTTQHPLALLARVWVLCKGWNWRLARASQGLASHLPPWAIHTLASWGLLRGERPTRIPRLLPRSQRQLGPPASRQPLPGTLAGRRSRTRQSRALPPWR
Activin receptor type-1-like (Homo sapiens), sequence (P37023 whole entry): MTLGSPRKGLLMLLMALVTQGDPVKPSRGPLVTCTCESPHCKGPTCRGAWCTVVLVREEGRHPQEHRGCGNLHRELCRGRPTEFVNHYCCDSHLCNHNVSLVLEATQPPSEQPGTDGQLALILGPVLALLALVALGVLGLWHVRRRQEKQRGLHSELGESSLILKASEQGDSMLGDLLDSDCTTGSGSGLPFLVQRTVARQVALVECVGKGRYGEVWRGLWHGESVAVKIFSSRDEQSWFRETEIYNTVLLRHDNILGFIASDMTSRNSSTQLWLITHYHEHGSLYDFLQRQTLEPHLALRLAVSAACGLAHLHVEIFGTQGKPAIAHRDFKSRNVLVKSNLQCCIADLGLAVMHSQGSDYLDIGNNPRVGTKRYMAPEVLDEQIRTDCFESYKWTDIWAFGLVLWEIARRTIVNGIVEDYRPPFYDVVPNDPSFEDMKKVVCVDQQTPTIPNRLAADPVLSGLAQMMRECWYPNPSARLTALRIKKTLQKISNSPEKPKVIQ
Serine/threonine-protein kinase Nek3 (Homo sapiens), sequence (P51956 whole entry): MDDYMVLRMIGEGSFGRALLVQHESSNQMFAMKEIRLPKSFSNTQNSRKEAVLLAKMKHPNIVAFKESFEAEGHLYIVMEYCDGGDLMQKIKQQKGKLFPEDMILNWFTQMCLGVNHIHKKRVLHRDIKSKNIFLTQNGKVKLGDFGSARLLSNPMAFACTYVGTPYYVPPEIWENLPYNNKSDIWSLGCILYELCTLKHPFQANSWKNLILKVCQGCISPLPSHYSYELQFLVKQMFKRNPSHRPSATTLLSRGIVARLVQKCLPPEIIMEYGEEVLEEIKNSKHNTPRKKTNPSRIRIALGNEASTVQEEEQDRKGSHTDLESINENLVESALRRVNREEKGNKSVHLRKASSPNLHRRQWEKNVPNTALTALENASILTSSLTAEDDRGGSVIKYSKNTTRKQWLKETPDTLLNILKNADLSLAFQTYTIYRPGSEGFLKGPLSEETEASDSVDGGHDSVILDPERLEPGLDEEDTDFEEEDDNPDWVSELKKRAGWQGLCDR

- activity [1]: 104%
- activity [2]: 119%
- activity [3]: 117%
- activity [4]: 92%
- activity [5]: 105%
- activity [6]: 94%
- activity [7]: 95%
- activity [8]: 96%
- activity [9]: 94%
- activity [10]: 112%
- activity [11]: 85%
- activity [12]: 77%
- activity [13]: 110%
- activity [14]: 118%
- activity [15]: 102%
- activity [16]: 100%
- activity [17]: 97%
- activity [18]: 95%
- activity [19]: 94%
- activity [20]: 97%
- activity [21]: 118%
- activity [22]: 108%
- activity [23]: 90%
- activity [24]: 95%
- activity [25]: 107%
- activity [26]: 86%
- activity [27]: 95%
- activity [28]: 90%
- activity [29]: 91%
- activity [30]: 90%
- activity [31]: 90%
- activity [32]: 85%
- activity [33]: 103%
- IC50 (Aurora kinase B): > 10 µM (not active)
- activity [34]: 97%
- activity [35]: 96%
- activity [37]: 113%
- activity [38]: 96%
SMILES: Cc1cc2c(-c3ccc(NC(=O)[C@H](N)CC(C)(C)C)cc3C)ccnc2[nH]1
- activity [36]: 79%
